Data from patent US20250326713A1, “INHIBITORS OF MsbA AS ANTIBIOTICS, PHARMACEUTICAL COMPOSITIONS, AND USES THEREOF” (priority 2022, published 2025).
Converted amounts (≈) assume the structure as drawn.

These molecules were tested on various strains of bacteria (assay: Antimicrobial potency: bacterial growth inhibition by OD600 (Antibacterial assay 1, MITC95)). Details: Acinetobacter baumannii, 20 h, lowest concentration giving >95% growth inhibition, CAMHB, 18-22 h.
Type: cell-based, A. baumannii
Experimental: The concentrations of compounds required to inhibit the growth of various strains of bacteria were determined in an assay that assessed bacterial growth by measuring optical density at 600 nm (OD600). Test articles were dissolved in 100% DMSO and serially diluted two-fold from their maximal concentration in 100% DMSO. Forty-nine μl of bacterial inoculum (at approx. 2×10^5 cfu/mL in CAMHB) were put into wells of an assay plate. One μl of compound or DMSO was transferred from the source plate to the assay plate. The completed assay plates were then incubated at 35+2degC for 18-22 h. Bacterial growth was measured by reading OD600 on a spectrophotometer. Data analysis calculates the lowest concentration of compound which results in >95% growth inhibition (minimum inhibitory threshold concentration 95%, MITC95).

Going from `O=C(O)c1cc(CN[C@H]2C[C@@H](COc3ccc(NS(=O)(=O)c4cnc(-c5ccc(Cl)cc5)s4)c(C(=O)O)c3)C2)ccc1NS(=O)(=O)CCc1ccc(F)cc1` [Compound 90] to `O=C(O)c1cc(OC2CN(Cc3ccc(NS(=O)(=O)c4cnc(-c5ccc(Cl)cc5)s4)c(C(=O)O)c3)C2)ccc1NS(=O)(=O)CCc1ccc(F)cc1` [Compound 85], the MIC rises from 0.00865 µM (≈ 0.00717 µg/mL) to 0.0173 µM (≈ 0.0139 µg/mL) (2-fold).

`O=C(O)c1cc(NCC2CC(NCc3ccc(NS(=O)(=O)N4CC(Oc5ccc(F)cc5)C4)c(C(=O)O)c3)C2)ccc1NS(=O)(=O)c1cnn(-c2ccc(F)cc2)c1` (stereo not shown) [Compound 28] and `O=C(O)c1cc(NCC2CC(NCc3ccc(NS(=O)(=O)c4cnn(-c5ccc(F)cc5)n4)c(C(=O)O)c3)C2)ccc1NS(=O)(=O)c1cnn(-c2ccc(F)cc2)c1` (stereo not shown) [Compound 31] are the same in MIC: 0.196 µM (≈ 0.164 µg/mL) for the first, 0.196 µM (≈ 0.163 µg/mL) for the second.

Going from `O=C(O)c1cc(OC2CN(Cc3ccc(NS(=O)(=O)c4cnn(-c5ccc(F)cc5)c4)c(-c4nn[nH]n4)c3)C2)ccc1NS(=O)(=O)c1cnn(-c2ccc(F)cc2)c1` [Compound 114, 2-((1-(4-fluorophenyl)-1H-pyrazole)-4-sulfonamido)-5-((1-(4-((1-(4-fluorophenyl)-1H-pyrazole)-4-sulfonamido)-3-(2H-tetrazol-5-yl)benzyl)azetidin-3-yl)oxy)benzoic acid] to `O=C(O)c1cc(CN2CC(Oc3ccc(NS(=O)(=O)c4cnn(-c5ccc(Cl)cc5)c4)c(C(=O)O)c3)C2)ccc1NS(=O)(=O)c1cnn(-c2ccc(Cl)cc2)c1` [Compound 117], the MIC falls from 0.246 µM (≈ 0.204 µg/mL) to 0.0489 µM (≈ 0.041 µg/mL) (5-fold).

`O=C(O)c1cc(OC2CN(Cc3ccc(NS(=O)(=O)c4cnn(-c5ccc(Cl)cc5)c4)c(C(=O)O)c3)C2)ccc1NS(=O)(=O)CCc1ccc(F)cc1` [Compound 82] and `O=C(O)c1cc(CN2CC(Oc3ccc(NS(=O)(=O)c4cnn(-c5ccc(F)cc5)c4)c(C(=O)O)c3)C2)ccc1NS(=O)(=O)CCCCCCc1ccc(Cl)cc1` [Compound 40] are within 1.5-fold of each other in MIC: 0.0346 µM (≈ 0.0271 µg/mL) for the first, 0.0489 µM (≈ 0.0411 µg/mL) for the second.

Going from `O=C(O)Cc1cc(CN2CC(Oc3ccc(NS(=O)(=O)c4cnn(-c5ccc(Cl)cc5)c4)c(CC(=O)O)c3)C2)ccc1NS(=O)(=O)c1cnn(-c2ccc(Cl)cc2)c1` [Compound 1, 2-(5-((1-(3-(carboxymethyl)-4-(1-(4-chlorophenyl)-1H-pyrazole-4-sulfonamido)benzyl)azetidin-3-yl)oxy)-2-(1-(4-chlorophenyl)-1H-pyrazole-4-sulfonamido)phenyl) acetic acid] to `O=C(CCc1ccc(Cl)cc1)Nc1ccc(OC2CN(Cc3ccc(NS(=O)(=O)c4cnn(-c5ccc(Cl)cc5)c4)c(C(=O)O)c3)C2)cc1C(=O)O` [Compound 65, 5-((1-(3-carboxy-4-((1-(4-chlorophenyl)-1H-pyrazole)-4-sulfonamido)-benzyl)azetidin-3-yl)oxy)-2-(3-(4-chlorophenyl)propanamido)benzoic acid], the MIC falls from 0.277 µM (≈ 0.24 µg/mL) to 0.0489 µM (≈ 0.0374 µg/mL) (5.7-fold).

Going from `O=C(O)c1cc(OC[C@H]2C[C@@H](NCc3ccc(NS(=O)(=O)N4CCOC(c5ccc(F)cc5)C4)c(C(=O)O)c3)C2)ccc1NS(=O)(=O)c1cnc(-c2ccc(F)cc2)s1` (stereo partly shown) [Compound 92] to `O=C(O)c1cc(OC[C@H]2C[C@@H](NCc3ccc(NS(=O)(=O)N4CCOC(c5ccc(F)cc5)C4)c(C(=O)O)c3)C2)ccc1NS(=O)(=O)c1cnn(-c2ccc(Cl)cc2)c1` (stereo partly shown) [Compound 89], the MIC falls from 0.00611 µM (≈ 0.00532 µg/mL) to less than 0.00306 µM.

Compared with `O=C(O)c1cc(CN2CC(Oc3ccc(NS(=O)(=O)c4ccc(-c5ccc(F)cc5)cc4)c(C(=O)O)c3)C2)ccc1NS(=O)(=O)CCc1ccc(F)cc1` [Compound 102], `O=C(O)c1cc(CN2CC(Oc3ccc(NS(=O)(=O)CCc4ccc(F)cc4)c(C(=O)O)c3)C2)ccc1NS(=O)(=O)CCc1ccc(F)cc1` [Compound 78, 5-((1-(3-carboxy-4-((2-(4-fluorophenyl)ethyl)sulfonamido)benzyl)azetidin-3-yl)oxy)-2-((2-(4-fluorophenyl)ethyl)sulfonamido)benzoic acid] is 16-fold higher in MIC: 0.0489 µM (≈ 0.038 µg/mL) for the first, 0.782 µM (≈ 0.571 µg/mL) for the second.

`Cn1nc(-c2ccccc2)cc1S(=O)(=O)Nc1ccc(CN2CC(Oc3ccc(NS(=O)(=O)c4ccc(-c5ccc(Cl)cc5)cc4)c(C(=O)O)c3)C2)cc1C(=O)O` [Compound 106] and `O=C(NCc1ccc(Cl)cc1)C(=O)Nc1ccc(OC2CN(Cc3ccc(NS(=O)(=O)c4ccc(-c5ccc(Cl)cc5)cc4)c(C(=O)O)c3)C2)cc1C(=O)O` [Compound 54, 5-((1-(3-carboxy-4-((4′-chloro-[1,1′-biphenyl])-4-sulfonamido)benzyl)azetidin-3-yl)oxy)-2-(2-((4-chlorobenzyl)amino)-2-oxoacetamido)benzoic acid] are within 1.5-fold of each other in MIC: 0.0489 µM (≈ 0.0405 µg/mL) for the first, 0.0346 µM (≈ 0.0278 µg/mL) for the second.

Going from `O=C(NCc1ccc(Cl)cc1)C(=O)Nc1ccc(OC2CN(Cc3ccc(NS(=O)(=O)N4CCOC(c5ccc(Cl)cc5)C4)c(C(=O)O)c3)C2)cc1C(=O)O` (stereo not shown) [Compound 60] to `O=C(NCc1ccc(Cl)cc1)C(=O)Nc1ccc(OC2CN(Cc3ccc(NS(=O)(=O)CCc4ccc(Cl)cc4)c(C(=O)O)c3)C2)cc1C(=O)O` [Compound 61], the MIC rises from 0.0122 µM (≈ 0.00991 µg/mL) to 0.196 µM (≈ 0.148 µg/mL) (16-fold).

Going from `O=C(O)c1cc(CNC23CCC(NCc4ccc(NS(=O)(=O)c5cnn(-c6ccc(Cl)cc6)c5)c(C(=O)O)c4)(C2)C3)ccc1NS(=O)(=O)c1cnn(-c2ccc(Cl)cc2)c1` [Compound 50] to `O=C(O)c1cc(CN[C@H]2C[C@@H](NCc3ccc(NS(=O)(=O)c4cnn(-c5ccc(F)cc5)c4)c(C(=O)O)c3)C2)ccc1NS(=O)(=O)c1cnn(-c2ccc(F)cc2)c1` [Compound 49], the MIC rises from 0.391 µM (≈ 0.349 µg/mL) to 1.56 µM (≈ 1.3 µg/mL) (4-fold).

`Cn1nc(-c2ccc(F)cc2)cc1S(=O)(=O)Nc1ccc(CNC2CC(CNc3ccc(NS(=O)(=O)c4cnn(-c5ccc(Cl)cc5)c4)c(C(=O)O)c3)C2)cc1C(=O)O` (stereo not shown) [Compound 34] and `O=C(O)c1cc(NCC2CC(NCc3ccc(NS(=O)(=O)c4cnc(-c5ccc(Cl)cc5)s4)c(C(=O)O)c3)C2)ccc1NS(=O)(=O)c1cnn(-c2ccc(F)cc2)c1` (stereo not shown) [Compound 26] are the same in MIC: 0.0489 µM (≈ 0.0422 µg/mL) for the first, 0.0489 µM (≈ 0.0424 µg/mL) for the second.

`O=C(CCc1ccc(Cl)c(Cl)c1)Nc1ccc(OC2CN(Cc3ccc(NS(=O)(=O)c4cnn(-c5ccc(Cl)cc5)c4)c(C(=O)O)c3)C2)cc1C(=O)O` [Compound 71] and `O=C(CCCc1ccccc1)Nc1ccc(OC2CN(Cc3ccc(NS(=O)(=O)c4cnn(-c5ccc(Cl)cc5)c4)c(C(=O)O)c3)C2)cc1C(=O)O` [Compound 72] are the same in MIC: 0.0978 µM (≈ 0.0782 µg/mL) for the first, 0.0978 µM (≈ 0.0728 µg/mL) for the second.

`O=C(O)c1cc(COC2CC(OCc3ccc(NS(=O)(=O)c4cnn(-c5ccc(F)cc5)c4)c(C(=O)O)c3)C2)ccc1NS(=O)(=O)c1cnn(-c2ccc(F)cc2)c1` (stereo not drawn) [Compound 12, trans-5-((3-((3-carboxy-4-((1-(4-fluorophenyl)-1H-pyrazole)-4-sulfonamido)benzyl)oxy)-cyclobutoxy)methyl)-2-((1-(4-fluorophenyl)-1H-pyrazole)-4-sulfonamido)benzoic acid] and `O=C(O)c1cc(CN2CC(Oc3ccc(NS(=O)(=O)c4coc(-c5ccc(F)cc5)n4)c(C(=O)O)c3)C2)ccc1NS(=O)(=O)c1coc(-c2ccc(F)cc2)n1` [Compound 116] are within 1.5-fold of each other in MIC: 0.138 µM (≈ 0.115 µg/mL) for the first, 0.0978 µM (≈ 0.079 µg/mL) for the second.

`O=C(O)c1cc(CN[C@H]2C[C@@H](COc3ccc(NS(=O)(=O)N4CCOC(c5ccc(F)cc5)C4)c(C(=O)O)c3)C2)ccc1NS(=O)(=O)N1CCOC(c2ccc(F)cc2)C1` (stereo partly shown) [Compound 95] was tested, and the MIC was 0.0122 µM (≈ 0.0106 µg/mL).

Same assay, conditions: lowest concentration giving >95% growth inhibition, CAMHB, 18-22 h

Molecule `O=C(O)c1cc(OC2CN(Cc3ccc(NS(=O)(=O)c4ccc(-c5ccc(Cl)cc5)cc4)c(C(=O)O)c3)C2)ccc1NS(=O)(=O)CCc1ccc(F)cc1` [Compound 81, 5-((3-(3-carboxy-4-((2-(4-fluorophenyl)ethyl)sulfonamido)phenoxy)azetidin-1-yl)methyl)-2-((4′-chloro-[1, l′-biphenyl])-4-sulfonamido)benzoic acid] has an MIC of 0.0122 µM (≈ 0.00969 µg/mL).
